In brackets after ≈: the same amount, converted by molar mass. Activity calls are given as the source filed them. The rule behind the calls is not given here.
Tests used:
Mus musculus [1] = assay: Inhibition of chymotrypsin-like activity of 20S proteasome in BALB/c mouse adrenal gland 40 mg/kg, po after 1 hr; type: functional; design: scale not given: the % may be the effect or the level left
Mus musculus [2] = assay: Inhibition of chymotrypsin-like activity of 20S proteasome in BALB/c mouse blood at 40 mg/kg, po after 1 hr; type: functional; design: scale not given: the % may be the effect or the level left
[3] = Chemical stability in simulated gastric fluid assessed as compound remaining at 4 uM after 15 mins; type: physicochemical; details: read-out: Stability
Mus musculus [4] = assay: Inhibition of chymotrypsin-like activity of 20S proteasome in BALB/c mouse liver at 40 mg/kg, po after 1 hr; type: functional; design: scale not given: the % may be the effect or the level left
[5] = Metabolic stability in mouse liver microsomes assessed as extraction ratio at 1 uM; type: ADME, Microsome
[6] = Inhibition of chymotrypsin-like activity of 20S proteasome in human MOLT4 cells after 1 hr by […]; type: cell-based; details: MOLT-4, 1 h
[7] = Cytotoxicity against human MESSA cells assessed as cell viability after 72 hrs by CellTiter-Glo luminescent assay; type: functional, cell-based; details: MES-SA
[8] = Inhibition of chymotrypsin-like activity of human 20S proteasome by spectrofluorimetry
Homo sapiens [9] = organism: Homo sapiens; assay: Ratio of Kinact to Ki for chymotrypsin-like activity of human 26S proteasome by spectrophotometry; design: unit not given here
[10] = Chemical stability in simulated intestinal fluid assessed as compound remaining at 4 uM after 15 mins; type: physicochemical; details: read-out: Stability
[11] = Cytotoxicity against multidrug resistance transporter expressing doxorubicin resistant human MESSA cells assessed as cell viability after 72 hrs by CellTiter-Glo luminescent assay; type: functional, cell-based; details: MES-SA
[12] = Inhibition of chymotrypsin-like activity of human 20S proteasome beta 5 subunit by proteasome active site ELISA
[13] = Metabolic stability in human liver microsomes assessed as extraction ratio at 1 uM; type: ADME, Microsome
[14] = target: T1, Proteasome subunit beta type-8 (Homo sapiens, UniProt P28062)
T1 sequence (P28062 whole entry): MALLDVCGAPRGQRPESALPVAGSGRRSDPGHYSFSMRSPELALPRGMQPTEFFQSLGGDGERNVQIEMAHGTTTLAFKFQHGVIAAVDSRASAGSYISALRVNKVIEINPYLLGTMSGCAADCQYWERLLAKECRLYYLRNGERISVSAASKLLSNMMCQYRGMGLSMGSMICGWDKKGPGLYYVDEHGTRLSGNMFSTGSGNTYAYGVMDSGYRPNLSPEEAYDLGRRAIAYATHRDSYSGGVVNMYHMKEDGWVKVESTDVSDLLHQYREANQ
Description: Inhibition of chymotrypsin-like activity of LMP7 immunoproteasome by proteasome active site ELISA

Mus musculus [15] = assay: Inhibition of chymotrypsin-like activity of 20S proteasome in BALB/c mouse adrenal gland at 10 mg/kg, po after 1 hr; type: functional; design: scale not given: the % may be the effect or the level left
[16] = Solubility in ethanol-PS80 citrate buffer at pH 3.5 by HPLC analysis; type: physicochemical
Mus musculus [17] = assay: Inhibition of chymotrypsin-like activity of 20S proteasome in BALB/c mouse adrenal gland at 20 mg/kg, po after 1 hr; type: functional; design: scale not given: the % may be the effect or the level left
[18] = Toxicity in po dosed BNX mouse xenografted with human RL cells assessed as maximum tolerated dose; type: organism-based; details: in vivo
RL [19] = assay: Antitumor activity against human RL cells xenografted in BNX mouse assessed as time to achieve significant decrease in tumor volume at 20 mg/kg, po administered as weekly qdx2 schedule; type: functional, organism-based; design: dose 20 mg/kg
[20] = Toxicity in po dosed BALB/c mouse xenografted with mouse CT26 cells assessed as maximum tolerated dose; type: organism-based; details: in vivo
CT26 [21] = assay: Antitumor activity against mouse CT26 cells xenografted in BALB/c mouse assessed as time to achieve significant decrease in tumor volume at 20 mg/kg, po administered 3 days post tumor challenge in weekly qdx2 schedule; type: functional, organism-based; design: dose 20 mg/kg
Homo sapiens [22] = organism: Homo sapiens; assay: Selectivity for chymotrypsin-like activity over caspase-like activity of human 20S proteasome
Homo sapiens [23] = organism: Homo sapiens; assay: Selectivity for chymotrypsin-like activity over trypsin-like activity of human 20S proteasome
CT26 [24] = assay: Antitumor activity against mouse CT26 cells xenografted in BALB/c mouse assessed as time to achieve significant decrease in tumor volume at 5 mg/kg, iv administered on day 3 post tumor challenge for weekly qdx2 schedule; type: functional
RL [25] = assay: Antitumor activity against human RL cells xenografted BNX mouse assessed as time to achieve significant decrease in tumor volume at 5 mg/kg, iv administered as weekly qdx2 schedule; type: functional
[26] = Toxicity in iv dosed BALB/c mouse xenografted with mouse CT26 cells assessed as maximum tolerated dose; type: organism-based; details: in vivo

IC50 [8]	remaining at 0.25 h, 4 µM [10]	IC50 [12]	hepatic extraction ratio at 1 µM [13]	IC50 [14]	hepatic extraction ratio at 1 µM [5]	solubility [16]	Structure (SMILES)	Activity (Mus musculus [1])	IC50 [6]	IC50 [7]	IC50 [11]	Activity (Mus musculus [15])	further results
57 nM	45%	–	–	–	–	–	CC(C)C[C@H](NC(=O)CN1CCOCC1)C(=O)N[C@@H](Cc1ccccc1)C(=O)N[C@@H](CC(C)C)C(=O)[C@@]1(C)CO1	82%	45 nM	35 nM	308 nM	–	Activity (Mus musculus [2]): 37%; remaining at 0.25 h, 4 µM [3]: 90%; Activity (Mus musculus [4]): 22%; hepatic extraction ratio at 1 µM ([5]; read-out: ERH): 0.95; Ratio (Homo sapiens [9]): 7900
73 nM	85%	44 nM	0.42 dimensionless ratio	93 nM	0.49 dimensionless ratio	–	COC[C@H](NC(=O)c1ccon1)C(=O)N[C@@H](COC)C(=O)N[C@@H](Cc1ccccc1)C(=O)[C@@]1(C)CO1	–	47 nM	43 nM	756 nM	34%	–
11 nM	35%	23 nM	0.4 dimensionless ratio	22 nM	0.37 dimensionless ratio	–	COC[C@H](NC(=O)c1cc(OC)no1)C(=O)N[C@@H](COC)C(=O)N[C@@H](CC(C)C)C(=O)[C@@]1(C)CO1	–	32 nM	12 nM	82 nM	21%	–
24 nM	90%	11 nM	0.59 dimensionless ratio	21 nM	0.59 dimensionless ratio	–	COC[C@H](NC(=O)c1cc(C)on1)C(=O)N[C@@H](COC)C(=O)N[C@@H](Cc1ccccc1)C(=O)[C@@]1(C)CO1	–	35 nM	17 nM	155 nM	43%	–
43 nM	90%	48 nM	0.16 dimensionless ratio	607 nM	0.39 dimensionless ratio	–	COC[C@H](NC(=O)c1ccon1)C(=O)N[C@@H](COC)C(=O)N[C@@H](CC(C)C)C(=O)[C@@]1(C)CO1	–	168 nM	37 nM	260 nM	14%	–
15 nM	–	–	–	–	–	≥ 1000 µg/mL	CC(C)C[C@H](NC(=O)c1cc(Cn2ccnc2)on1)C(=O)N[C@@H](Cc1ccccc1)C(=O)N[C@@H](CC(C)C)C(=O)[C@@]1(C)CO1	110%	59 nM	52 nM	> 1000 nM	–	–
4.1 nM	60%	–	–	–	–	1480 µg/mL (≈ 2370 µM)	CC(C)C[C@H](NC(=O)c1cc(CN2CCOCC2)on1)C(=O)N[C@@H](Cc1ccccc1)C(=O)N[C@@H](CC(C)C)C(=O)[C@@]1(C)CO1	29%	11 nM	22 nM	70 nM	–	Ratio (Homo sapiens [9]): 28300
13 nM	–	–	–	–	–	≥ 1000 µg/mL	CC(C)C[C@H](NC(=O)c1cc(Cn2cncn2)on1)C(=O)N[C@@H](Cc1ccccc1)C(=O)N[C@@H](CC(C)C)C(=O)[C@@]1(C)CO1	105%	62 nM	35 nM	> 1000 nM	–	–
11 nM	70%	17 nM	0.54 dimensionless ratio	238 nM	0.67 dimensionless ratio	5880 µg/mL (≈ 12200 µM)	COC[C@H](NC(=O)c1cc(C)on1)C(=O)N[C@@H](COC)C(=O)N[C@@H](CC(C)C)C(=O)[C@@]1(C)CO1	–	48 nM	22 nM	145 nM	21%	Activity (Mus musculus [17]): 9%; Ratio (Homo sapiens [9]): 31800
6.7 nM	20%	–	–	–	–	–	Cc1cc(C(=O)N[C@@H](Cc2cscn2)C(=O)N[C@@H](Cc2ccccc2)C(=O)N[C@@H](CC(C)C)C(=O)[C@@]2(C)CO2)no1	–	56 nM	15 nM	77 nM	63%	–
1.8 nM	60%	–	–	–	–	60 µg/mL (≈ 111 µM)	Cc1cc(C(=O)N[C@@H](CC(C)C)C(=O)N[C@@H](Cc2ccccc2)C(=O)N[C@@H](CC(C)C)C(=O)[C@@]2(C)CO2)no1	–	17 nM	28 nM	47 nM	–	Ratio (Homo sapiens [9]): 50900
94 nM	40%	–	–	–	–	≥ 1000 µg/mL	CC(C)C[C@H](NC(=O)c1cc(CN2CCN(C)CC2)on1)C(=O)N[C@@H](Cc1ccccc1)C(=O)N[C@@H](CC(C)C)C(=O)[C@@]1(C)CO1	101%	124 nM	189 nM	> 1000 nM	–	–
50 nM	100%	14 nM	0.64 dimensionless ratio	36 nM	0.54 dimensionless ratio	–	COC[C@H](NC(=O)c1cc(OC)no1)C(=O)N[C@@H](COC)C(=O)N[C@@H](Cc1ccccc1)C(=O)[C@@]1(C)CO1	–	10 nM	12 nM	269 nM	19%	–
3.1 nM	70%	9.3 nM	0.69 dimensionless ratio	41 nM	0.69 dimensionless ratio	–	CCOc1cc(C(=O)N[C@@H](COC)C(=O)N[C@@H](COC)C(=O)N[C@@H](CC(C)C)C(=O)[C@@]2(C)CO2)no1	–	35 nM	5.4 nM	66 nM	4%	–
9.3 nM	90%	–	0.91 dimensionless ratio	–	0.96 dimensionless ratio	750 µg/mL (≈ 1420 µM)	COC[C@H](NC(=O)c1cc(C)on1)C(=O)N[C@@H](Cc1ccccc1)C(=O)N[C@@H](CC(C)C)C(=O)[C@@]1(C)CO1	9%	36 nM	40 nM	75 nM	–	Activity (Mus musculus [17]): 33%; Ratio (Homo sapiens [9]): 58600
19 nM	100%	–	0.28 dimensionless ratio	–	0.48 dimensionless ratio	1240 µg/mL (≈ 2740 µM)	COC[C@H](NC(=O)c1cc(C)on1)C(=O)N[C@@H](C)C(=O)N[C@@H](CC(C)C)C(=O)[C@@]1(C)CO1	–	57 nM	28 nM	276 nM	–	Activity (Mus musculus [17]): 8%

Structure (SMILES)	IC50 [8]	remaining at 0.25 h, 4 µM [10]	IC50 [12]	hepatic extraction ratio at 1 µM [13]	IC50 [14]	hepatic extraction ratio at 1 µM [5]	solubility [16]	Activity (Mus musculus [1])	IC50 [6]	IC50 [7]	IC50 [11]	Activity (Mus musculus [15])	further results
CCOc1cc(C(=O)N[C@@H](COC)C(=O)N[C@@H](COC)C(=O)N[C@@H](Cc2ccccc2)C(=O)[C@@]2(C)CO2)no1	1.4 nM	85%	3.7 nM	0.77 dimensionless ratio	5 nM	0.77 dimensionless ratio	–	–	3 nM	4.3 nM	54 nM	3%	MTD [18]: 20 mg/kg; Activity (RL [19]): inactive; MTD [20]: 20 mg/kg; Activity (CT26 [21]): inactive
CC(C)C[C@H](NC(=O)[C@H](CCc1ccccc1)NC(=O)CN1CCOCC1)C(=O)N[C@@H](Cc1ccccc1)C(=O)N[C@@H](CC(C)C)C(=O)[C@@]1(C)CO1 [CARFILZOMIB]	5.7 nM	< 5%	5.2 nM	–	–	–	–	83%	5.1 nM	18 nM	413 nM	–	fold change (FC) (Homo sapiens [22]): > 100; Activity (Mus musculus [2]): 77%; remaining at 0.25 h, 4 µM [3]: 15%; Activity (Mus musculus [4]): 109%; fold change (FC) (Homo sapiens [23]): > 100; Activity (CT26 [24]): 26 days; Activity (RL [25]): 35 days; MTD [26]: 5 mg/kg

From ChEMBL document CHEMBL1138457, “Design and synthesis of an orally bioavailable and selective peptide epoxyketone proteasome inhibitor (PR-047)” (J Med Chem, 2009)
